Source: PubChem BioAssay (NCI)
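Where inhibition never reached the appropriate level, the endpoint shown equals the highest concentration tested. Otherwise, values were interpolated linearly from a five-concentration, 48-hour dose response in 96-well plates. TGI: total growth inhibition.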

Assays:
Assay in all cases: NCI anticancer screen, dose series, 48 h
786-0 renal = system: 786-0 renal
A549 NSCLC = system: A549 NSCLC
CAKI-1 renal = system: CAKI-1 renal
COLO 205 colon = system: COLO 205 colon
HCT-116 colon = system: HCT-116 colon
HCT-15 colon = system: HCT-15 colon
M14 melanoma = system: M14 melanoma
NCI-H23 lung = system: NCI-H23 lung
OVCAR-3 ovarian = system: OVCAR-3 ovarian
OVCAR-5 ovarian = system: OVCAR-5 ovarian
OVCAR-8 ovarian = system: OVCAR-8 ovarian
SK-MEL-5 melanoma = system: SK-MEL-5 melanoma
SNB-75 CNS = system: SNB-75 CNS
HT29 colon = system: HT29 colon
IGROV1 ovarian = system: IGROV1 ovarian
SF-295 CNS = system: SF-295 CNS
SK-OV-3 ovarian = system: SK-OV-3 ovarian

## COc1ccccc1-n1c(N)c2c(C)c(-c3ccccc3)[nH]c2nc1=S
786-0 renal
  TGI: > 100 µM
A549 NSCLC
  TGI: > 100 µM
CAKI-1 renal
  TGI: > 100 µM
COLO 205 colon
  TGI: > 100 µM
HCT-116 colon
  TGI: > 100 µM
HCT-15 colon
  TGI: > 100 µM
M14 melanoma
  TGI: > 100 µM
NCI-H23 lung
  TGI: > 100 µM
OVCAR-3 ovarian
  TGI: > 100 µM
OVCAR-5 ovarian
  TGI: > 100 µM
OVCAR-8 ovarian
  TGI: > 100 µM
SK-MEL-5 melanoma
  TGI: > 100 µM
SNB-75 CNS
  TGI: > 100 µM

## Cc1nc(N)c(-c2ccccc2)s1
786-0 renal
  TGI: > 100 µM
A549 NSCLC
  TGI: > 100 µM
CAKI-1 renal
  TGI: > 100 µM
COLO 205 colon
  TGI: > 66.7 µM
HCT-116 colon
  TGI: > 66.8 µM
HCT-15 colon
  TGI: > 62.1 µM
HT29 colon
  TGI: > 100 µM
IGROV1 ovarian
  TGI: > 100 µM
M14 melanoma
  TGI: > 100 µM
NCI-H23 lung
  TGI: > 100 µM
OVCAR-3 ovarian
  TGI: > 100 µM
OVCAR-5 ovarian
  TGI: > 100 µM
OVCAR-8 ovarian
  TGI: > 100 µM
SF-295 CNS
  TGI: 92.4 µM
SK-MEL-5 melanoma
  TGI: > 100 µM
SK-OV-3 ovarian
  TGI: > 100 µM
SNB-75 CNS
  TGI: > 100 µM

## COc1cc(OC)c2c(=O)c3c([N+](=O)[O-])cccc3n(C)c2c1
786-0 renal
  TGI: > 100 µM
A549 NSCLC
  TGI: > 100 µM
CAKI-1 renal
  TGI: > 100 µM
COLO 205 colon
  TGI: > 100 µM
HCT-116 colon
  TGI: > 100 µM
HCT-15 colon
  TGI: > 100 µM
HT29 colon
  TGI: > 100 µM
IGROV1 ovarian
  TGI: > 100 µM
M14 melanoma
  TGI: > 100 µM
NCI-H23 lung
  TGI: > 100 µM
OVCAR-3 ovarian
  TGI: > 100 µM
OVCAR-5 ovarian
  TGI: > 100 µM
OVCAR-8 ovarian
  TGI: > 100 µM
SF-295 CNS
  TGI: > 100 µM
SK-MEL-5 melanoma
  TGI: > 100 µM
SK-OV-3 ovarian
  TGI: > 100 µM
SNB-75 CNS
  TGI: > 100 µM

## CC/C(=N/O)c1ccc2[nH]c3c(C)cc([N+](=O)[O-])c(C)c3c2c1
786-0 renal
  TGI: > 100 µM
A549 NSCLC
  TGI: > 100 µM
CAKI-1 renal
  TGI: > 100 µM
COLO 205 colon
  TGI: > 100 µM
HCT-116 colon
  TGI: > 100 µM
HCT-15 colon
  TGI: > 100 µM
HT29 colon
  TGI: > 100 µM
M14 melanoma
  TGI: > 100 µM
NCI-H23 lung
  TGI: > 100 µM
OVCAR-3 ovarian
  TGI: > 100 µM
OVCAR-5 ovarian
  TGI: > 100 µM
OVCAR-8 ovarian
  TGI: > 100 µM
SF-295 CNS
  TGI: > 100 µM
SK-MEL-5 melanoma
  TGI: > 100 µM
SNB-75 CNS
  TGI: > 100 µM

## CCCCNC(=NCc1ccccc1)NC#N
786-0 renal
  TGI: > 100 µM
A549 NSCLC
  TGI: > 100 µM
CAKI-1 renal
  TGI: > 100 µM
COLO 205 colon
  TGI: > 100 µM
HCT-116 colon
  TGI: > 100 µM
HCT-15 colon
  TGI: > 100 µM
HT29 colon
  TGI: > 100 µM
IGROV1 ovarian
  TGI: > 100 µM
M14 melanoma
  TGI: > 100 µM
NCI-H23 lung
  TGI: > 100 µM
OVCAR-3 ovarian
  TGI: > 100 µM
OVCAR-5 ovarian
  TGI: > 100 µM
OVCAR-8 ovarian
  TGI: > 100 µM
SF-295 CNS
  TGI: > 100 µM
SK-MEL-5 melanoma
  TGI: > 100 µM
SK-OV-3 ovarian
  TGI: > 100 µM
SNB-75 CNS
  TGI: > 100 µM

## N#C/C(=C\c1cc(O)ccc1O)C(N)=O
786-0 renal
  TGI: > 100 µM
A549 NSCLC
  TGI: > 100 µM
CAKI-1 renal
  TGI: > 100 µM
COLO 205 colon
  TGI: > 100 µM
HCT-116 colon
  TGI: > 100 µM
HCT-15 colon
  TGI: > 100 µM
HT29 colon
  TGI: > 100 µM
IGROV1 ovarian
  TGI: > 100 µM
M14 melanoma
  TGI: > 100 µM
NCI-H23 lung
  TGI: > 100 µM
OVCAR-3 ovarian
  TGI: > 100 µM
OVCAR-5 ovarian
  TGI: > 100 µM
OVCAR-8 ovarian
  TGI: > 100 µM
SF-295 CNS
  TGI: > 100 µM
SK-OV-3 ovarian
  TGI: > 100 µM
SNB-75 CNS
  TGI: 90.8 µM

## Cc1ccc(NC(=O)CSc2nnc(Cc3ccccc3)o2)cc1
786-0 renal
  TGI: > 100 µM
A549 NSCLC
  TGI: > 100 µM
CAKI-1 renal
  TGI: > 100 µM
COLO 205 colon
  TGI: > 100 µM
HCT-116 colon
  TGI: > 100 µM
HCT-15 colon
  TGI: > 100 µM
HT29 colon
  TGI: > 100 µM
IGROV1 ovarian
  TGI: > 100 µM
M14 melanoma
  TGI: > 100 µM
NCI-H23 lung
  TGI: > 100 µM
OVCAR-3 ovarian
  TGI: > 100 µM
OVCAR-5 ovarian
  TGI: > 100 µM
OVCAR-8 ovarian
  TGI: > 100 µM
SF-295 CNS
  TGI: > 100 µM
SK-MEL-5 melanoma
  TGI: > 100 µM
SK-OV-3 ovarian
  TGI: > 100 µM
SNB-75 CNS
  TGI: > 100 µM

## CCCCCCCCCCCCCCCCc1c(C(=O)OC)nc(NN)[nH]c1=O
786-0 renal
  TGI: > 50 µM
A549 NSCLC
  TGI: > 50 µM
CAKI-1 renal
  TGI: > 50 µM
COLO 205 colon
  TGI: > 50 µM
HCT-116 colon
  TGI: > 50 µM
HCT-15 colon
  TGI: > 50 µM
HT29 colon
  TGI: > 50 µM
IGROV1 ovarian
  TGI: > 50 µM
M14 melanoma
  TGI: > 50 µM
NCI-H23 lung
  TGI: > 50 µM
OVCAR-3 ovarian
  TGI: > 50 µM
OVCAR-5 ovarian
  TGI: > 50 µM
OVCAR-8 ovarian
  TGI: > 50 µM
SF-295 CNS
  TGI: > 50 µM
SK-MEL-5 melanoma
  TGI: > 50 µM
SK-OV-3 ovarian
  TGI: > 50 µM
SNB-75 CNS
  TGI: > 50 µM

## CCOC(=O)C(/C(=N\NC(=O)OC)C(=O)Nc1cc(OC)ccc1OC)c1cnc2ccccc2n1 (stereo not given)
786-0 renal
  TGI: > 100 µM
A549 NSCLC
  TGI: > 100 µM
CAKI-1 renal
  TGI: > 100 µM
COLO 205 colon
  TGI: > 100 µM
HCT-116 colon
  TGI: > 100 µM
HCT-15 colon
  TGI: > 100 µM
HT29 colon
  TGI: > 100 µM
IGROV1 ovarian
  TGI: > 100 µM
M14 melanoma
  TGI: > 100 µM
NCI-H23 lung
  TGI: > 100 µM
OVCAR-8 ovarian
  TGI: > 100 µM
SF-295 CNS
  TGI: > 100 µM
SK-MEL-5 melanoma
  TGI: > 100 µM
SK-OV-3 ovarian
  TGI: > 100 µM
SNB-75 CNS
  TGI: > 100 µM

## COc1ccc2c(c1)[n+](=O)c(C(=O)C/C(=N/NC(=O)C[N+](C)(C)C)C(=O)Nc1cccc(C)c1C)c(C)n2O
786-0 renal
  TGI: > 100 µM
A549 NSCLC
  TGI: > 100 µM
CAKI-1 renal
  TGI: > 100 µM
COLO 205 colon
  TGI: > 100 µM
HCT-116 colon
  TGI: > 100 µM
HCT-15 colon
  TGI: > 100 µM
HT29 colon
  TGI: > 100 µM
IGROV1 ovarian
  TGI: > 100 µM
M14 melanoma
  TGI: > 100 µM
NCI-H23 lung
  TGI: > 100 µM
OVCAR-3 ovarian
  TGI: > 100 µM
OVCAR-5 ovarian
  TGI: > 100 µM
OVCAR-8 ovarian
  TGI: > 100 µM
SF-295 CNS
  TGI: > 100 µM
SK-OV-3 ovarian
  TGI: > 100 µM
SNB-75 CNS
  TGI: > 100 µM

## CCOC(=O)CCC(NC(=O)c1ccc(N=Cc2nc3ccccc3nc2-c2ccccc2)cc1)C(=O)OCC (stereo not given)
786-0 renal
  TGI: > 100 µM
A549 NSCLC
  TGI: > 100 µM
CAKI-1 renal
  TGI: > 100 µM
COLO 205 colon
  TGI: > 100 µM
HCT-116 colon
  TGI: > 100 µM
HCT-15 colon
  TGI: > 100 µM
HT29 colon
  TGI: > 100 µM
IGROV1 ovarian
  TGI: > 100 µM
M14 melanoma
  TGI: > 100 µM
NCI-H23 lung
  TGI: > 100 µM
OVCAR-3 ovarian
  TGI: > 100 µM
OVCAR-5 ovarian
  TGI: > 100 µM
OVCAR-8 ovarian
  TGI: > 100 µM
SF-295 CNS
  TGI: > 100 µM
SK-MEL-5 melanoma
  TGI: > 100 µM
SK-OV-3 ovarian
  TGI: > 100 µM
SNB-75 CNS
  TGI: > 100 µM

## O=C(Cc1ccc([N+](=O)[O-])c([N+](=O)[O-])c1CC(=O)C(=O)Nc1cc(Cl)ccc1Cl)C(=O)Nc1cc(Cl)ccc1Cl
786-0 renal
  TGI: > 100 µM
A549 NSCLC
  TGI: > 100 µM
CAKI-1 renal
  TGI: > 100 µM
COLO 205 colon
  TGI: 52.5 µM
HCT-116 colon
  TGI: > 100 µM
HCT-15 colon
  TGI: 45.1 µM
HT29 colon
  TGI: > 100 µM
IGROV1 ovarian
  TGI: > 100 µM
M14 melanoma
  TGI: > 100 µM
NCI-H23 lung
  TGI: > 100 µM
OVCAR-3 ovarian
  TGI: > 100 µM
OVCAR-5 ovarian
  TGI: > 100 µM
OVCAR-8 ovarian
  TGI: > 100 µM
SF-295 CNS
  TGI: > 100 µM
SK-MEL-5 melanoma
  TGI: > 100 µM
SK-OV-3 ovarian
  TGI: > 100 µM
SNB-75 CNS
  TGI: > 100 µM

## COc1cc2c(cc1O)CN1CCC23C=C[C@@H](O)CC13 (stereo not given in full)
786-0 renal
  TGI: > 100 µM
A549 NSCLC
  TGI: > 100 µM
CAKI-1 renal
  TGI: > 100 µM
COLO 205 colon
  TGI: 78.1 µM
HCT-116 colon
  TGI: > 100 µM
HCT-15 colon
  TGI: > 100 µM
HT29 colon
  TGI: > 100 µM
IGROV1 ovarian
  TGI: > 100 µM
M14 melanoma
  TGI: > 100 µM
NCI-H23 lung
  TGI: > 100 µM
OVCAR-3 ovarian
  TGI: > 100 µM
OVCAR-5 ovarian
  TGI: > 100 µM
OVCAR-8 ovarian
  TGI: > 100 µM
SF-295 CNS
  TGI: > 100 µM
SK-MEL-5 melanoma
  TGI: > 100 µM
SK-OV-3 ovarian
  TGI: > 100 µM
SNB-75 CNS
  TGI: > 100 µM

## Cc1nc(-n2nc(-c3ccccc3)cc2-c2ccccc2)sc1C(=O)/C=C/c1ccc(Cl)c(Cl)c1
786-0 renal
  TGI: 33.5 µM
A549 NSCLC
  TGI: > 100 µM
CAKI-1 renal
  TGI: 78.7 µM
COLO 205 colon
  TGI: > 100 µM
HCT-116 colon
  TGI: > 100 µM
HCT-15 colon
  TGI: 39.9 µM
IGROV1 ovarian
  TGI: 30 µM
M14 melanoma
  TGI: 40.5 µM
NCI-H23 lung
  TGI: > 100 µM
OVCAR-3 ovarian
  TGI: 54.2 µM
OVCAR-5 ovarian
  TGI: 66.2 µM
OVCAR-8 ovarian
  TGI: 31.3 µM
SF-295 CNS
  TGI: 35.7 µM
SK-OV-3 ovarian
  TGI: > 100 µM
